Measurements as given in ChEMBL document CHEMBL4052762, “Synthesis and biological evaluation of pyrrole-based chalcones as CYP1 enzyme inhibitors, for possible prevention of cancer and overcoming cisplatin resistance” (Bioorg Med Chem Lett, 2017).

Key:
Cytochrome P450 1A1 = biological target: T1, Cytochrome P450 1A1 (Homo sapiens, UniProt P04798); assay: Inhibition of human CYP1A1 transfected in HEK293 cells assessed as protection from CYP1A1 mediated B[a]P toxicity at 8 times IC50 by MTT assay; type: cell-based
T1 sequence (P04798 whole entry): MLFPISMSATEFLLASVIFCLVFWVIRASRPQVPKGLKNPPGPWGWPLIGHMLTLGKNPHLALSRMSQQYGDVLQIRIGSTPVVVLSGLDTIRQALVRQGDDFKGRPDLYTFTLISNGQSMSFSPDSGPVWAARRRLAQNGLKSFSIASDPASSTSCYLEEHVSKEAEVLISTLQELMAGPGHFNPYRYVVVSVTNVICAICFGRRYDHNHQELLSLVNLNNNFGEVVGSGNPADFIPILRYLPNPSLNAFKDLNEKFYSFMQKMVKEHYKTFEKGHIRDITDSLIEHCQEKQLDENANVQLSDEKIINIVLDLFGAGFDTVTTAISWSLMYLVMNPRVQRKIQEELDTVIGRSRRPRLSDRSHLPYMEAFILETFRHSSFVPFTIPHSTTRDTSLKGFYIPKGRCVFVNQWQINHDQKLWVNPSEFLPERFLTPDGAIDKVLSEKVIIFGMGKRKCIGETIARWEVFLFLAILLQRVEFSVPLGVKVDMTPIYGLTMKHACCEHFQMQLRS

Cytochrome P450 1B1 = biological target: T2, Cytochrome P450 1B1 (Homo sapiens, UniProt Q16678); assay: Inhibition of human CYP1B1 transfected in HEK293 cells assessed as reduction in cisplatin EC50 at 20 uM by MTT assay; type: cell-based; settings: hek293, 20 µM
T2 sequence (Q16678 whole entry): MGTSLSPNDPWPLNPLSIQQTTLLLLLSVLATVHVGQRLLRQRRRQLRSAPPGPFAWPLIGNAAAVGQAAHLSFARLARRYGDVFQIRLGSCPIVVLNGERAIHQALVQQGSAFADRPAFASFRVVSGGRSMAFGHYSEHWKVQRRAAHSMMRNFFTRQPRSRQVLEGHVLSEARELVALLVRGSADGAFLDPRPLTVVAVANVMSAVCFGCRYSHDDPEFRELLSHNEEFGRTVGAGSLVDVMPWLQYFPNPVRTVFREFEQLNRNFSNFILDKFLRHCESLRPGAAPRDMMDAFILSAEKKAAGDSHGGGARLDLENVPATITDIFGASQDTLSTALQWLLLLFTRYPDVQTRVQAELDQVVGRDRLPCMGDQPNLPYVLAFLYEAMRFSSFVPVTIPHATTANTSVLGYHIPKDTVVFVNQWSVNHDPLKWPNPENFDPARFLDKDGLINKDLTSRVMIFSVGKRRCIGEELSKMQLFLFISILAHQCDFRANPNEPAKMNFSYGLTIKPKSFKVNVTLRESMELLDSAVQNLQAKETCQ

inhibition (INH) (Cytochrome P450 1B1)	SMILES	inhibition (INH) (Cytochrome P450 1A1)
–	COc1ccccc1/C=C/C(=O)c1ccc[nH]1	Active
Not Active	O=C(/C=C/c1ccc(OC(F)(F)F)cc1)c1ccc[nH]1	–
